Experimental data as given in PubChem BioAssay (NCI).
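1) Cells in 96-well plates. 2) Compound, 48 h, 5 concentrations. 3) Linear interpolation between surrounding doses. 4) Unreached endpoint = highest concentration. GI50: concentration for 50% inhibition of growth. TGI denotes the concentration required for complete inhibition of growth.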

Tests used:
Test in all cases: DTP human tumour cell line panel, 48 h
MALME-3M melanoma = test system: MALME-3M melanoma
SK-MEL-5 melanoma = test system: SK-MEL-5 melanoma
HL-60(TB) leukemia = test system: HL-60(TB) leukemia
SF-295 CNS = test system: SF-295 CNS
OVCAR-5 ovarian = test system: OVCAR-5 ovarian
HCT-15 colon = test system: HCT-15 colon
KM12 colon = test system: KM12 colon
NCI-H23 lung = test system: NCI-H23 lung
EKVX NSCLC = test system: EKVX NSCLC
NCI-H522 lung = test system: NCI-H522 lung

SMILES	TGI (MALME-3M melanoma)	TGI (SK-MEL-5 melanoma)	TGI (HL-60(TB) leukemia)	TGI (SF-295 CNS)	TGI (OVCAR-5 ovarian)	TGI (HCT-15 colon)	TGI (KM12 colon)	TGI (NCI-H23 lung)	TGI (EKVX NSCLC)	TGI (NCI-H522 lung)	GI50 (NCI-H522 lung)	GI50 (SK-MEL-5 melanoma)	GI50 (HL-60(TB) leukemia)	GI50 (SF-295 CNS)	GI50 (OVCAR-5 ovarian)	GI50 (HCT-15 colon)	GI50 (KM12 colon)	GI50 (NCI-H23 lung)	GI50 (EKVX NSCLC)	GI50 (MALME-3M melanoma)
Cc1cc(C)nc(NS(=O)(=O)c2ccc(NC(=O)c3ccc(Cl)c4c(Nc5ccc(S(=O)(=O)Nc6nc(C)cc(C)n6)cc5)c5ccccc5nc34)cc2)n1	53.5 µM	73.1 µM	11 µM	> 100 µM	32.4 µM	> 100 µM	> 100 µM	39.7 µM	88.8 µM	–	–	–	–	–	–	–	–	–	–	–
CN1C(=O)C(C)(C)C2(SC(C)(C)C2(C)C)N(C)C1=S (centres undefined)	> 100 µM	–	> 100 µM	> 100 µM	> 100 µM	> 100 µM	> 100 µM	> 100 µM	> 100 µM	> 100 µM	–	–	–	–	–	–	–	–	–	–
COc1ccccc1C12OC(=O)C1(C)Oc1ccccc1C2=O (centres undefined)	> 100 µM	> 100 µM	> 100 µM	> 100 µM	> 100 µM	> 100 µM	> 100 µM	> 100 µM	> 100 µM	–	–	–	–	–	–	–	–	–	–	–
O=C(N/C(=C\c1ccc(/C=C(\NC(=O)c2ccccc2)c2nc3cc([N+](=O)[O-])ccc3[nH]2)cc1)c1nc2cc([N+](=O)[O-])ccc2[nH]1)c1ccccc1	> 100 µM	> 100 µM	–	> 100 µM	> 100 µM	> 100 µM	–	> 100 µM	> 100 µM	50 µM	–	–	–	–	–	–	–	–	–	–
COc1cc(Cc2cnc(/N=C3\C(=O)N(CN4CCN(c5c(F)cc6c(=O)c(C(=O)O)cn(C7CC7)c6c5OC)CC4C)c4ccc(F)cc43)nc2N)cc(OC)c1OC (centres undefined)	–	35.2 µM	> 100 µM	30.2 µM	22.5 µM	5.18 µM	35.9 µM	42.9 µM	56.6 µM	> 100 µM	63.5 µM	18.3 µM	3.28 µM	14.4 µM	10.6 µM	1.35 µM	13.7 µM	18.1 µM	21.9 µM	–
COc1ccc2c(C3=C(c4cn(C)c5ccccc45)C(=O)NC3=O)cn(C)c2c1	> 25 µM	2.57 µM	–	–	–	> 25 µM	7.24 µM	> 25 µM	–	0.902 µM	0.0742 µM	0.0899 µM	0.0998 µM	0.0649 µM	–	0.116 µM	0.111 µM	0.143 µM	–	> 25 µM
O=C(O)CSc1ccc([N+](=O)[O-])cc1[N+](=O)[O-]	> 100 µM	–	> 100 µM	> 100 µM	> 100 µM	> 100 µM	> 100 µM	> 100 µM	> 100 µM	> 100 µM	–	–	–	–	–	–	–	–	–	–
CC1=C(C(=O)NCc2ccccc2)C(/C=C/c2ccccc2)C(C(=O)NCc2ccccc2)=C(C)N1	> 100 µM	> 100 µM	> 100 µM	> 100 µM	> 100 µM	> 100 µM	> 100 µM	> 100 µM	> 100 µM	–	–	–	–	–	–	–	–	–	–	–
O=C(O)CCc1coc2ccc(O)cc12	–	> 100 µM	> 100 µM	> 100 µM	–	> 100 µM	–	> 100 µM	> 100 µM	–	–	–	–	–	–	–	–	–	–	–
CC(=O)NNc1nc(C)c(C(=O)NNC(=O)C(=O)Nc2c(Cl)cc([N+](=O)[O-])cc2Cl)s1	> 100 µM	> 100 µM	84.7 µM	> 100 µM	93.4 µM	> 100 µM	> 100 µM	36.7 µM	> 100 µM	–	–	–	–	–	–	–	–	–	–	–
Cc1nc2ccccc2c(=O)n1-c1ccccc1I	> 100 µM	> 100 µM	> 100 µM	> 100 µM	> 100 µM	> 100 µM	–	> 100 µM	> 100 µM	> 100 µM	–	–	–	–	–	–	–	–	–	–
